≈ marks a conversion by molar mass, not a printed value. Where two headings read alike, the source gives them in different places.
Key:
[1] = target: T1, HBV DNA polymerase (Hepatitis B virus genotype D subtype ayw, UniProt P03156); test: Time course of HBV DNA synthesis, normal substrate added after 120 min with analog; format: biochemical, hepatitis B virion (HBV); conditions: for HBV DNA synthesis after addition of the normal substrate at 120 min of reaction with the analog: ACVTP 5 uM then 100 um dGTP, ara-ATP then dATP, ara-CTP then dCTP
T1 construct: HBV particles containing DNA polymerase activity were purified from the serum of an immunosuppressed patient; from tissue; host or cells: virus particles purified from the serum of an HBsAg-positive immunosuppressed patient
T1 sequence (P03156 whole entry): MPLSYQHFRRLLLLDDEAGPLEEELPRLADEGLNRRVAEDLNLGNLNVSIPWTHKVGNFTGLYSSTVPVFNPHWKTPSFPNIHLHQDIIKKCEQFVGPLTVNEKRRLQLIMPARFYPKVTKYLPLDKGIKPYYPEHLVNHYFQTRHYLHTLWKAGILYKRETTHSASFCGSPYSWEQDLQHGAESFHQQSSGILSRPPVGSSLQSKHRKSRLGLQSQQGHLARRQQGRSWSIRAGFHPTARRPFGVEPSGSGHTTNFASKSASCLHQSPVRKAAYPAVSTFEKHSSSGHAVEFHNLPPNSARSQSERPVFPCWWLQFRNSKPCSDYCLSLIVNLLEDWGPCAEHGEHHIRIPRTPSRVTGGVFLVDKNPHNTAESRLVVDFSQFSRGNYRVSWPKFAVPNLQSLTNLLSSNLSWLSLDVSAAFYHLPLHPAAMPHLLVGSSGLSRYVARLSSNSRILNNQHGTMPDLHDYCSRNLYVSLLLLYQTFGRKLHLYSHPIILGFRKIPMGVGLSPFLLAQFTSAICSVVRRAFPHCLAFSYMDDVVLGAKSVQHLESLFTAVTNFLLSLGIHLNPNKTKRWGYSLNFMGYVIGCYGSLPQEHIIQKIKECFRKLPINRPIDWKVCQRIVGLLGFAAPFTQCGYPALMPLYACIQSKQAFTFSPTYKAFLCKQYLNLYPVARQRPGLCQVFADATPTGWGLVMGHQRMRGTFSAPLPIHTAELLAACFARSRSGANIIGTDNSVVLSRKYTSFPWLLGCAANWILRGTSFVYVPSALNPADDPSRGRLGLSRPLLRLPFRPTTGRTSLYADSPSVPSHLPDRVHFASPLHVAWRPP
Protocol: (§1) DNA polymerase was assayed as described by Kaplan et al (J. Virol., 12, 995 (1973)) with minor modification. The assay was performed in a 50 ul reaction mixture containing 50 mM Tris-HCl pH=7,6,40 mM MgC12, 60 mM NH4 Cl, 100 uM each dATP, dCTP and dGTP, 0.2-0.7 uM [^3 H] dTTP (30 Ci/mmol), 10 mM 2-mercaptoethanol, 0.5% Nonidet P 40 and enzyme. The reaction was started by addition of the virus particles with 2-mercaptoethanol and Nonidet P 40. Incubation was at 37° C. for 1 h. Acid insoluble radioactive material was collected on a glass fiber filter (GF/C Whatman) Filters were washed 5 times with cold 5% trichloracetic acid containing 10 mM sodium pyrophosphate, then with 95% ethanol. Radioactivity of the dried filter was measured in a liquid scintillation counter.
The effect of ACVTP on HBV DNA synthesis was also studied in a time course experiment ^3 H] dTTP was the labelled substrate. The reaction was initiated without dGTP or with 5 um ACVTP instead of dGTP. […] After 120 min of reaction, 100 uM of dGTP was added. In the assay without dGTP only, the addition of dGTP increased DNA synthesis as expected.

[2] = target: T1, HBV DNA polymerase; test: HBV endogenous DNA polymerase assay, inhibition by nucleoside triphosphate analogs; format: biochemical, hepatitis B virion (HBV); conditions: for ID50 relative to ID50 of FIACTP: times more than FIACTP; for Nature of inhibition (Lineweaver-Burk plots): versus dGTP (ACVTP), dCTP (FIACTP), dTTP (BVdUTP); for Relative efficiency as inhibitor of HBV DNA polymerase: excess of nucleotides (50 uM)
From the text: (§2) HBV particles containing DNA polymerase activity were purified from the serum of an immunosuppressed patient, positive for HBsAg. WHV was obtained from a serum pool of five woodchucks (Marmota monax) chronic carriers of the virus. The woodchucks initially imported from Pennsylvania (Dutchland Lab. Pennsylvania, USA) belonged to a colony followed for over one year by serological tests (Hantz et al, J. Virol. Metho. 7, 45-55 (1983)).
(§3) Virus was purified by centrifugation on sucrose and isopycnic CsCl gradients. (Hantz et al submitted for publication).
as §1
(§4) The relative sensitivities of both enzymes to CVTP, FIACTP and BVdUTP were compared using an excess of nucleotides. For each inhibitor, the concentration of the corresponding radioactive triphosphate was maintained at 2 to 3 times the Km value while the remaining nucleotides were in great excess (50 uM).
(§5) Although the mode of action for the various compounds is known to be different, the nature of ACVTP, FIACTP and BVdUTP inhibition of viral DNA synthesis catalyzed by HBV and WHV DNA polymerases was examined by determining the extent of inhibition with increasing concentrations of the substrates. In assays with ACVTP, [^3 H] dGTP was the rate limiting substrate while the other three nucleotides were in excess. The same conditions were used with [^3 H] dCTP for FIACTP and [^3 H] dTTP for BVdUTP inhibition. […] Similar results were obtained for WHV DNA polymerase.

[3] = target: T2, WHV DNA polymerase (Woodchuck hepatitis B virus, UniProt P03160); test: WHV endogenous DNA polymerase assay, inhibition by nucleoside triphosphate analogs; format: biochemical; conditions: for ID50 relative to ID50 of FIACTP: times more than FIACTP; for Affinity of WHV DNA polymerase to the analog compared with HBV DNA polymerase: WHV versus HBV DNA polymerase
T2 construct: WHV was obtained from a serum pool of five woodchucks (Marmota monax) chronic carriers of the virus; from tissue; host or cells: virus particles purified from a serum pool of five chronically infected woodchucks (imported from Pennsylvania)
T2 sequence (P03160 whole entry): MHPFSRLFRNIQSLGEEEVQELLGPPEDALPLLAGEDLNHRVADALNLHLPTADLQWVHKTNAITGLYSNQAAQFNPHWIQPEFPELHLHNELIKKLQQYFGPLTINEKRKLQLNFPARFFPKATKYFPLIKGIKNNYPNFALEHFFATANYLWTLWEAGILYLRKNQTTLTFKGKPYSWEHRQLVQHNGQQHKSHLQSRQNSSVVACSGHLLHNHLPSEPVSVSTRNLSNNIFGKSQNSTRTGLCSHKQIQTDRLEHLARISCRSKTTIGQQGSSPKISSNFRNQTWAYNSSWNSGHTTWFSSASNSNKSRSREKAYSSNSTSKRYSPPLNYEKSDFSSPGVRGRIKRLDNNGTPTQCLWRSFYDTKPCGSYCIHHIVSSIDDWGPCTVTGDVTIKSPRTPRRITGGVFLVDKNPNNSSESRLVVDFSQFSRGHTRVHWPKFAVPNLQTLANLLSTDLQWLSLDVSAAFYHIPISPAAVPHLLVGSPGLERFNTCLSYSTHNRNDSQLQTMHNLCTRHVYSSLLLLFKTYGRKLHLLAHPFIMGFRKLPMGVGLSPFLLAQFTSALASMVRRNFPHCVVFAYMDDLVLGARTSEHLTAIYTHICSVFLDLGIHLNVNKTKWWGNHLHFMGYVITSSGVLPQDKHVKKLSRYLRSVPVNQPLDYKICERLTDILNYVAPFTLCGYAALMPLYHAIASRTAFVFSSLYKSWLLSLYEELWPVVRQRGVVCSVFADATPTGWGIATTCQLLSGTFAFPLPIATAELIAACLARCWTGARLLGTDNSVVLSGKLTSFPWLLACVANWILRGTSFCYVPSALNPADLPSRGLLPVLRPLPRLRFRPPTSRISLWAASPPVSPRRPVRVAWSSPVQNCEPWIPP
From the text: as §2, §3, §1, §4, §5

[4] = target: T1, HBV DNA polymerase; test: Time course of viral DNA synthesis with the analog as alternate substrate; format: biochemical, hepatitis B virion (HBV); conditions: for DNA synthesis when the natural triphosphate is substituted by the analog: ara-TTP for dTTP, ara-CTP for dCTP, ACVTP for dGTP; for Viral DNA syntheses with dTTP substituted by the analog: [3H] dATP labelled substrate
Protocol: as §1
The [^32 p] DNA product by the endogenous DNA polymerase reaction was analysed by agarose gel electrophoresis as described by Summers et al (Proc. Natl. Acad. Sci. U.S.A. 72, 4597-4601 (1975)). The reaction was made in 15 ul of the standard DNA polymerase mixture with 1 uM of [^32 p] dCTP (500 Ci/mmol) as labelled nucleotide.
After 2 h incubation at 37° C., the reaction was terminated by the addition of 20 ul of 10 mM Tris, 10 mM EDTA, 0, 1 mg per ml of proteinase K, 0, 1% (wt/vol) sodium dodecyl sulfate, followed by further incubation for 60 mn at 37° C. 5 ul of 5% (wt/vol) sucrose, 1% bromophenol blue was added, the entire mixture was heated for […] at 65° C., immediately colded at 4° C. and then analyzed by electrophoresis on a horizontal slab gel of 1% agarose. After electrophoresis, the gel was dried and developed by autoradiography.
To determine the effect of the three analogs on viral DNA synthesis, a time course experiment was performed with HBV DNA polymerase. [^3 ] dATP was used as the labelled substrate. […] The substitution of dTTP by BVdUTP permitted the viral DNA syntheses up to 46 percent of the control after 3 h of reaction. This value increased to 67 percent of the optimal activity after 4 h of reaction. […] The DNA synthesized with BVdUTP as alternate substrate was analyzed by agarose gel electrophoresis.

[5] = system: HBV replication; conditions: patients with chronic hepatitis B; Weller et al 1982, 1983; cited from earlier work
[6] = target: T2, WHV DNA polymerase; test: Analog as alternate substrate of WHV DNA polymerase; format: biochemical
[7] = Solubility in water; format: physicochemical
From the text: These compounds are soluble in water and therefore water or water based solutions are preferred as solvents for treating patients. The solubilities are as follows:
The solubility of these compounds can be increased by adding acid or base to the aqueous solvent.

[8] = water, at 28°, read-out: Solubility

Nc1nc2c(ncn2COCCOP(=O)(O)OP(=O)(O)OP(=O)(O)O)c(=O)[nH]1 [ACVTP]
Incorporation of [3H] dTMP with analog instead of dGTP ([1]; 5 um ACVTP instead of dGTP, first 120 min): no incorporation
HBV DNA synthesis when reaction is started with analog and dGTP together ([1]; ACVTP 5 uM and dGTP 100 uM from start): a significant DNA synthesis was observed
HBV DNA synthesis after addition of the normal substrate at 120 min of reaction with the analog [1]: no DNA synthesis was observed
ID50 relative to ID50 of FIACTP ([2]; HBV DNA polymerase): 18 times
Nature of inhibition (Lineweaver-Burk plots) ([2]; HBV DNA polymerase): competitive
ID50 relative to ID50 of FIACTP ([3]; WHV DNA polymerase): 18 times
Affinity of WHV DNA polymerase to the analog compared with HBV DNA polymerase [3]: lower affinity
DNA synthesis when the natural triphosphate is substituted by the analog [4]: did not increase the polymerization process

Nc1nc2c(ncn2COCCO)c(=O)[nH]1 [ACV]
In vivo inhibition of HBV replication [5]: inhibition of HBV replication

O=c1[nH]c(=O)n([C@H]2C[C@H](O)[C@@H](COP(=O)(O)OP(=O)(O)OP(=O)(O)O)O2)cc1/C=C/Br [BVdUTP]
ID50 relative to ID50 of FIACTP ([2]; HBV DNA polymerase): 5 times
Nature of inhibition (Lineweaver-Burk plots) ([2]; HBV DNA polymerase): competitive
ID50 relative to ID50 of FIACTP ([3]; WHV DNA polymerase): 5 times
Affinity of WHV DNA polymerase to the analog compared with HBV DNA polymerase [3]: lower affinity
DNA synthesized with analog as alternate substrate (agarose gel electrophoresis) ([6]; WHV DNA): Only incomplete filling of the single stranded region
Efficiency as alternate substrate ([6]; WHV DNA polymerase): most efficient alternate substrate
DNA synthesized with analog as alternate substrate (agarose gel electrophoresis) ([4]; HBV DNA): Only incomplete filling of the single stranded region
Efficiency as alternate substrate ([4]; HBV DNA polymerase): most efficient alternate substrate
Viral DNA syntheses with dTTP substituted by the analog ([4]; after 3 h of reaction): 46% of the control
Viral DNA syntheses with dTTP substituted by the analog ([4]; after 4 h of reaction): 67% of the optimal activity

Nc1nc(=O)n([C@@H]2O[C@H](CO)[C@@H](O)[C@@H]2F)cc1I [FIAC, 2'-fluoro-2'-deoxy-arabinosyl-5-iodocytosine]
solubility ([7]; water with 1 eq hcl, aqueous solvent with about one molar equivalent of hydrochloric acid, read-out: Solubility with added acid): ~250 mg/mL
solubility ([7]; water, at 21°, read-out: Solubility): 7.2 mg/mL (≈ 19.4 mM)

Nc1nc(=O)n([C@@H]2O[C@H](COP(=O)(O)OP(=O)(O)OP(=O)(O)O)[C@@H](O)[C@@H]2F)cc1I [FIACTP]
IC50 ([2]; HBV DNA polymerase, radioactive triphosphate at 2 to 3 times Km, remaining nucleotides 50 uM, read-out: ID50 (concentration of triphosphate required to inhibit 50 percent of DNA polymerase)): 50 nM
Nature of inhibition (Lineweaver-Burk plots) ([2]; HBV DNA polymerase): competitive
Relative efficiency as inhibitor of HBV DNA polymerase [2]: most efficient inhibitor
IC50 ([3]; WHV DNA polymerase, radioactive triphosphate at 2 to 3 times Km, remaining nucleotides 50 uM, read-out: ID50 (concentration of triphosphate required to inhibit 50 percent of DNA polymerase)): 50 nM
Affinity of WHV DNA polymerase to the analog compared with HBV DNA polymerase [3]: lower affinity
Incorporation of [3H] dAMP with the analog instead of dCTP ([4]; after 3 h of reaction): about 10 % of the control

O=c1[nH]c(=O)n([C@@H]2O[C@H](CO)[C@@H](O)[C@@H]2F)cc1I [FIAU, 2'-fluoro-2'-deoxy-arabinosyl-5-iodouracil]
Solubility with added base ([7]; aqueous solvent with one equivalent of sodium hydroxide (sodium salt)): increased many fold
solubility [7, 8]: 4 mg/mL (≈ 10.8 mM)

Cc1cn([C@@H]2O[C@H](CO)[C@@H](O)[C@@H]2F)c(=O)[nH]c1=O [FMAU, 2'-fluoro-2'-deoxy-arabinosyl-5-methyluracil]
solubility ([7]; water, at 24°, read-out: Solubility): 66 mg/mL (≈ 254 mM)
solubility [7, 8]: 81 mg/mL (≈ 311 mM)

Nc1ncnc2c1ncn2[C@@H]1O[C@H](COP(=O)(O)OP(=O)(O)OP(=O)(O)O)[C@@H](O)[C@@H]1O [ara-ATP]
HBV DNA synthesis after addition of the normal substrate at 120 min of reaction with the analog [1]: increased the HBV DNA synthesis

Nc1ccn([C@@H]2O[C@H](COP(=O)(O)OP(=O)(O)OP(=O)(O)O)[C@@H](O)[C@@H]2O)c(=O)n1 [ara-CTP]
HBV DNA synthesis after addition of the normal substrate at 120 min of reaction with the analog [1]: increased the HBV DNA synthesis
Relative efficiency as inhibitor of HBV DNA polymerase [2]: least efficient
DNA synthesis when the natural triphosphate is substituted by the analog [4]: no significant incorporation

Cc1cn([C@@H]2O[C@H](COP(=O)(O)OP(=O)(O)OP(=O)(O)O)[C@@H](O)[C@@H]2O)c(=O)[nH]c1=O [ara-TTP]
DNA synthesis when the natural triphosphate is substituted by the analog [4]: no significant DNA synthesis

— patent publication US4666892A, “Method and composition for hepatitis treatment with pyrimidine nucleoside compounds” (Sloan-Kettering Memorial Cancer Center, priority 1986, dated 1987)
